Experimental data published in PubChem BioAssay (NCI).
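GI50: concentration for 50% inhibition of growth. At the TGI there is no net growth.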

Experiments:
Assay in all cases: NCI anticancer screen, dose series, 384-well format
CCRF-CEM leukemia = tested on: CCRF-CEM leukemia
UO-31 renal = tested on: UO-31 renal
HS 578T breast = tested on: HS 578T breast
CAKI-1 renal = tested on: CAKI-1 renal
HCT-116 colon = tested on: HCT-116 colon
HOP-62 NSCLC = tested on: HOP-62 NSCLC
HL-60(TB) leukemia = tested on: HL-60(TB) leukemia
ACHN renal = tested on: ACHN renal
DU-145 prostate = tested on: DU-145 prostate
UACC-62 melanoma = tested on: UACC-62 melanoma
M14 melanoma = tested on: M14 melanoma
MDA-MB-435 melanoma = tested on: MDA-MB-435 melanoma
MDA-MB-468 breast = tested on: MDA-MB-468 breast
NCI/ADR-RES ovarian = tested on: NCI/ADR-RES ovarian
MOLT-4 leukemia = tested on: MOLT-4 leukemia
NCI-H522 lung = tested on: NCI-H522 lung
NCI-H23 lung = tested on: NCI-H23 lung
A549 NSCLC = tested on: A549 NSCLC
SK-OV-3 ovarian = tested on: SK-OV-3 ovarian
U251 glioblastoma = tested on: U251 glioblastoma
OVCAR-8 ovarian = tested on: OVCAR-8 ovarian
PC-3 prostate = tested on: PC-3 prostate
A498 renal = tested on: A498 renal
T-47D breast = tested on: T-47D breast
MCF7 breast = tested on: MCF7 breast
SNB-19 CNS = tested on: SNB-19 CNS
SN12C renal = tested on: SN12C renal
SK-MEL-28 melanoma = tested on: SK-MEL-28 melanoma
OVCAR-3 ovarian = tested on: OVCAR-3 ovarian
K-562 leukemia = tested on: K-562 leukemia
BT-549 breast = tested on: BT-549 breast
786-0 renal = tested on: 786-0 renal
MDA-MB-231 breast = tested on: MDA-MB-231 breast
HCT-15 colon = tested on: HCT-15 colon
HOP-92 NSCLC = tested on: HOP-92 NSCLC
SF-268 CNS = tested on: SF-268 CNS
OVCAR-5 ovarian = tested on: OVCAR-5 ovarian
SK-MEL-2 melanoma = tested on: SK-MEL-2 melanoma
LOX IMVI melanoma = tested on: LOX IMVI melanoma
MALME-3M melanoma = tested on: MALME-3M melanoma
KM12 colon = tested on: KM12 colon
SW-620 colon = tested on: SW-620 colon
SNB-75 CNS = tested on: SNB-75 CNS
HT29 colon = tested on: HT29 colon
SF-539 CNS = tested on: SF-539 CNS
RPMI-8226 leukemia = tested on: RPMI-8226 leukemia
TK-10 renal = tested on: TK-10 renal
SK-MEL-5 melanoma = tested on: SK-MEL-5 melanoma
NCI-H322M lung = tested on: NCI-H322M lung
COLO 205 colon = tested on: COLO 205 colon
NCI-H460 NSCLC = tested on: NCI-H460 NSCLC
IGROV1 ovarian = tested on: IGROV1 ovarian
OVCAR-4 ovarian = tested on: OVCAR-4 ovarian
HCC-2998 colon = tested on: HCC-2998 colon
RXF 393 renal = tested on: RXF 393 renal
NCI-H226 lung = tested on: NCI-H226 lung
SF-295 CNS = tested on: SF-295 CNS
UACC-257 melanoma = tested on: UACC-257 melanoma
EKVX NSCLC = tested on: EKVX NSCLC

## Nc1nc(F)nc2c1ncn2C1OC(COP(=O)(O)O)C(O)C1O (centres undefined)
CCRF-CEM leukemia
  GI50: 1.91 µM
  TGI: 3.57 µM
UO-31 renal
  GI50: 30.6 µM
HS 578T breast
  GI50: 55 µM
CAKI-1 renal
  GI50: 25.3 µM
HCT-116 colon
  GI50: 19.3 µM
HOP-62 NSCLC
  GI50: 5.8 µM
  TGI: 21.2 µM
HL-60(TB) leukemia
  GI50: 3.71 µM
  TGI: 11 µM
ACHN renal
  GI50: 32.9 µM
DU-145 prostate
  GI50: 21.6 µM
  TGI: 93.8 µM
UACC-62 melanoma
  GI50: 23.2 µM
  TGI: 54.1 µM
M14 melanoma
  GI50: 8.5 µM
  TGI: 37.3 µM
MDA-MB-435 melanoma
  GI50: 49.9 µM
MDA-MB-468 breast
  GI50: 71 µM
NCI/ADR-RES ovarian
  GI50: 4.74 µM
  TGI: 41.2 µM
MOLT-4 leukemia
  GI50: 1.53 µM
  TGI: 2.89 µM
NCI-H522 lung
  GI50: 59.7 µM
NCI-H23 lung
  GI50: 11.7 µM
  TGI: 32.9 µM
A549 NSCLC
  GI50: 36.1 µM
SK-OV-3 ovarian
  GI50: 24 µM
U251 glioblastoma
  GI50: 90.2 µM
OVCAR-8 ovarian
  GI50: 3.16 µM
  TGI: 15.8 µM
PC-3 prostate
  GI50: 37.6 µM
A498 renal
  GI50: 31.2 µM
T-47D breast
  GI50: 83 µM
MCF7 breast
  GI50: 41.2 µM
SNB-19 CNS
  GI50: 20.6 µM
SN12C renal
  GI50: 4.96 µM
  TGI: 21.8 µM
SK-MEL-28 melanoma
  GI50: 7.83 µM
OVCAR-3 ovarian
  GI50: 58.4 µM
K-562 leukemia
  GI50: 58.4 µM
BT-549 breast
  GI50: 20 µM
  TGI: 96.9 µM
786-0 renal
  GI50: 33 µM
MDA-MB-231 breast
  GI50: 32.9 µM
HCT-15 colon
  GI50: 39.9 µM
HOP-92 NSCLC
  GI50: 30.9 µM
SF-268 CNS
  GI50: 48.3 µM
OVCAR-5 ovarian
  GI50: 57.5 µM
SK-MEL-2 melanoma
  GI50: 51.7 µM
  TGI: 84.5 µM
LOX IMVI melanoma
  GI50: 45.4 µM
MALME-3M melanoma
  GI50: 25.1 µM

## CNC(=O)c1ccc(Nc2nc(OC3CCCC3)c3c(-c4ccc5nc(C)oc5c4)c[nH]c3n2)c(OC)c1
CCRF-CEM leukemia
  GI50: 0.0226 µM
  TGI: 0.0445 µM
UO-31 renal
  GI50: 0.0898 µM
  TGI: > 100 µM
HS 578T breast
  GI50: 0.0775 µM
  TGI: 0.891 µM
CAKI-1 renal
  GI50: 0.387 µM
  TGI: 3.29 µM
HCT-116 colon
  GI50: 0.0467 µM
  TGI: 11 µM
HOP-62 NSCLC
  GI50: 0.0376 µM
  TGI: 5.77 µM
KM12 colon
  GI50: 0.0817 µM
  TGI: > 100 µM
HL-60(TB) leukemia
  GI50: 0.0408 µM
  TGI: 1.31 µM
SW-620 colon
  GI50: 0.0535 µM
  TGI: 0.762 µM
ACHN renal
  GI50: 0.0878 µM
  TGI: 15.5 µM
DU-145 prostate
  GI50: 0.0743 µM
  TGI: 15.8 µM
SNB-75 CNS
  GI50: 0.0686 µM
  TGI: 1.78 µM
UACC-62 melanoma
  GI50: 0.167 µM
  TGI: 96.4 µM
HT29 colon
  GI50: 0.0845 µM
  TGI: > 100 µM
M14 melanoma
  GI50: 0.0843 µM
  TGI: 63.8 µM
MDA-MB-435 melanoma
  GI50: 11 µM
  TGI: 49.1 µM
MDA-MB-468 breast
  GI50: 0.0454 µM
  TGI: 0.226 µM
NCI/ADR-RES ovarian
  GI50: 0.316 µM
  TGI: 60.5 µM
MOLT-4 leukemia
  GI50: 0.0118 µM
  TGI: 0.0304 µM
NCI-H522 lung
  GI50: 0.0998 µM
  TGI: 1.44 µM
NCI-H23 lung
  GI50: 0.0643 µM
  TGI: 0.615 µM
A549 NSCLC
  GI50: 0.0223 µM
  TGI: 2.89 µM
SK-OV-3 ovarian
  GI50: 0.352 µM
  TGI: 5.28 µM
SF-539 CNS
  GI50: 0.0476 µM
  TGI: 1.84 µM
RPMI-8226 leukemia
  GI50: 0.0618 µM
  TGI: 0.271 µM
U251 glioblastoma
  GI50: 0.063 µM
  TGI: 16 µM
TK-10 renal
  GI50: 0.626 µM
  TGI: > 100 µM
SK-MEL-5 melanoma
  GI50: 0.0735 µM
  TGI: 1.55 µM
OVCAR-8 ovarian
  GI50: 0.0458 µM
  TGI: 12.5 µM
PC-3 prostate
  GI50: 0.896 µM
  TGI: 15.2 µM
A498 renal
  GI50: 0.239 µM
  TGI: 9.43 µM
T-47D breast
  GI50: 0.25 µM
  TGI: > 100 µM
NCI-H322M lung
  GI50: 0.593 µM
  TGI: 52.8 µM
COLO 205 colon
  GI50: 0.0331 µM
  TGI: 0.233 µM
MCF7 breast
  GI50: 0.13 µM
  TGI: 15.7 µM
NCI-H460 NSCLC
  GI50: 0.0348 µM
  TGI: 1.71 µM
IGROV1 ovarian
  GI50: 0.145 µM
  TGI: 15.8 µM
SNB-19 CNS
  GI50: 0.225 µM
  TGI: 41.6 µM
SN12C renal
  GI50: 0.224 µM
  TGI: 2.76 µM
SK-MEL-28 melanoma
  GI50: 5.58 µM
  TGI: 30.5 µM
OVCAR-3 ovarian
  GI50: 0.169 µM
  TGI: 0.965 µM
K-562 leukemia
  GI50: 0.121 µM
  TGI: 19.4 µM
BT-549 breast
  GI50: 0.0949 µM
  TGI: 65.1 µM
OVCAR-4 ovarian
  GI50: 1.9 µM
  TGI: 17.7 µM
786-0 renal
  GI50: 0.065 µM
  TGI: 14.2 µM
MDA-MB-231 breast
  GI50: 0.29 µM
  TGI: > 100 µM
HCC-2998 colon
  GI50: 24.5 µM
  TGI: > 100 µM
HCT-15 colon
  GI50: 0.0375 µM
  TGI: 2.84 µM
HOP-92 NSCLC
  GI50: 0.681 µM
  TGI: 9.34 µM
SF-268 CNS
  GI50: 0.0185 µM
  TGI: 0.0727 µM
RXF 393 renal
  GI50: 0.106 µM
  TGI: 1.96 µM
NCI-H226 lung
  GI50: 0.381 µM
  TGI: 9.7 µM
OVCAR-5 ovarian
  GI50: 0.146 µM
  TGI: > 100 µM
SF-295 CNS
  GI50: 0.265 µM
  TGI: > 100 µM
LOX IMVI melanoma
  GI50: 0.0454 µM
  TGI: 14.2 µM
UACC-257 melanoma
  GI50: 0.328 µM
  TGI: 47.3 µM
MALME-3M melanoma
  GI50: 0.0936 µM
  TGI: 14.2 µM
EKVX NSCLC
  GI50: 0.187 µM
  TGI: 15.3 µM
